Reference: patent publication US12606541B2, “PPARg modulators and methods of use” (Eisai R&D Management Co., Ltd., priority 2020, dated 2026)

The molecules below were run against T1, His6-TEV-PPARγ-(234-505) (Homo sapiens, UniProt P37231) (assay: TR-FRET Assay to Measure Co-R Peptide Recruitment to PPARγ). Conditions: Co-R peptide recruitment to PPARγ; read-out: TR-FRET AC50.
T1 construct: The His6-TEV-PPARγ-(234-505) protein for assay was expressed and purified; TEV cleavage site (N); made in house
T1 sequence (P37231 234-505): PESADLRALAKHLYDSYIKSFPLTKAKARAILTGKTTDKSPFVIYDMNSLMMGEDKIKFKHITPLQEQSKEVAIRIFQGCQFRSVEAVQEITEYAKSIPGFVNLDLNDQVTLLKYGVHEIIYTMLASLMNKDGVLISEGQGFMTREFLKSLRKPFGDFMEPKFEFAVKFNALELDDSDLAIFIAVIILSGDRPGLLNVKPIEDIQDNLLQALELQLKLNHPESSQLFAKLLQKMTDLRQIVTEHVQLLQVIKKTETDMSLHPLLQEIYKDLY
Assay type: biochemical
Outline: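 Corepressor recruitment is measured by adding terbium-labeled anti-His antibody and FITC SMRT-ID2 peptide, at 5 and 200 nM final, after a 20-minute room-temperature protein–compound incubation. After one further hour, signal is converted to percent response between DMSO and 500 nM T0070907 wells.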

SMILES | AC50
CC(C)(C)CNC(=O)C1CCN(C(=O)c2cc(-c3ccncc3)[nH]n2)CC1 [N-(2,2-dimethylpropyl)-1-[5-(pyridin-4-yl)-1H-pyrazole-3-carbonyl]piperidine-4-carboxamide] | > 1000 nM
CC1CCC(NC(=O)C2CCN(C(=O)c3cc(-c4ccnc(C#N)c4)[nH]n3)CC2)CC1 (centres unmarked) [1-[5-(2-cyanopyridin-4-yl)-1H-pyrazole-3-carbonyl]-N-(4-methylcyclohexyl)piperidine-4-carboxamide] | > 1000 nM
O=C(NC1CCC(O)CC1)C1CCN(C(=O)c2cc(-c3ccncc3)[nH]n2)CC1 (centres unmarked) | > 1000 nM
COc1cc(-c2cc(C(=O)N3CCC(C(=O)NC4CCC(C)(OC)CC4)CC3)n[nH]2)c(Cl)cn1 (centres unmarked) [1-[5-(5-chloro-2-methoxypyridin-4-yl)-1H-pyrazole-3-carbonyl]-N-(4-methoxy-4-methylcyclohexyl)piperidine-4-carboxamide] | > 1000 nM
CCOCCNC(=O)C1CCN(C(=O)c2cc(-c3ccncc3)[nH]n2)CC1 [N-(2-ethoxyethyl)-1-[5-(pyridin-4-yl)-1H-pyrazole-3-carbonyl]piperidine-4-carboxamide] | > 1000 nM
COc1cc(-c2cc(C(=O)N3CCC(C(=O)NCC4CN(C)CCO4)CC3)n[nH]2)c(Cl)cn1 (centres unmarked) [1-[5-(5-chloro-2-methoxypyridin-4-yl)-1H-pyrazole-3-carbonyl]-N-[(4-methylmorpholin-2-yl)methyl]piperidine-4-carboxamide] | > 1000 nM

Next, values leading:

AC50 | SMILES
> 1000 nM | COc1cc(-c2cc(C(=O)N3CCC(C(=O)NCC4(C)CCCO4)CC3)n[nH]2)c(Cl)cn1 (centres unmarked) [1-[5-(5-chloro-2-methoxypyridin-4-yl)-1H-pyrazole-3-carbonyl]-N-[(2-methyloxolan-2-yl)methyl]piperidine-4-carboxamide]
> 1000 nM | COc1cc(-c2cc(C(=O)N3CCC(C(=O)NC45CC(F)(C4)C5)CC3)n[nH]2)c(Cl)cn1 [1-[5-(5-chloro-2-methoxypyridin-4-yl)-1H-pyrazole-3-carbonyl]-N-{3-fluorobicyclo[1.1.1]pentan-1-yl}piperidine-4-carboxamide]
> 1000 nM | COc1cc(-c2cc(C(=O)N3CCC(C(=O)NCc4nc(C)c(C)s4)CC3)n[nH]2)c(Cl)cn1 [1-[5-(5-chloro-2-methoxypyridin-4-yl)-1H-pyrazole-3-carbonyl]-N-[(4,5-dimethyl-1,3-thiazol-2-yl)methyl]piperidine-4-carboxamide]
> 1000 nM | COc1cc(-c2cc(C(=O)N3CCC(C(=O)NC45COC(C4)C5)CC3)n[nH]2)c(Cl)cn1 [1-[5-(5-chloro-2-methoxypyridin-4-yl)-1H-pyrazole-3-carbonyl]-N-{2-oxabicyclo[2.1.1]hexan-4-yl}piperidine-4-carboxamide]
> 1000 nM | COc1cc(-c2cc(C(=O)N3CCC(C(=O)Nc4ccc(CS(C)(=O)=O)cc4)CC3)n[nH]2)c(Cl)cn1 [1-[5-(5-chloro-2-methoxypyridin-4-yl)-1H-pyrazole-3-carbonyl]-N-[4-(methanesulfonylmethyl)phenyl]piperidine-4-carboxamide]
> 1000 nM | COc1cc(-c2cc(C(=O)N3CCC(C(=O)NCc4c(F)ccc(C)c4F)CC3)n[nH]2)c(Cl)cn1 [1-[5-(5-chloro-2-methoxypyridin-4-yl)-1H-pyrazole-3-carbonyl]-N-[(2,6-difluoro-3-methylphenyl)methyl]piperidine-4-carboxamide]
> 1000 nM | COc1cc(-c2cc(C(=O)N3CCC(C(=O)NCC4(C)COC4)CC3)n[nH]2)c(Cl)cn1 [1-[5-(5-chloro-2-methoxypyridin-4-yl)-1H-pyrazole-3-carbonyl]-N-[(3-methyloxetan-3-yl)methyl]piperidine-4-carboxamide]
> 1000 nM | COc1cc(-c2cc(C(=O)N3CCC(C(=O)NCc4ccc5[nH]cnc5c4)CC3)n[nH]2)c(Cl)cn1 [N-[(1H-1,3-benzodiazol-5-yl)methyl]-1-[5-(5-chloro-2-methoxypyridin-4-yl)-1H-pyrazole-3-carbonyl]piperidine-4-carboxamide]
